# Reference: patent US20170340588A1, “MODULATION OF REGULATORY T CELLS VIA G-COUPLED PROTEIN RECEPTOR 43” (President and Fellows of Harvard College, priority 2013, published 2017)
# What was measured:
# [1] = Stability of SCFA mix in mouse water bottle over time; type: physicochemical
# Procedure: Mice were treated for 21 days with either sodium acetate (150 mM), sodium propionate (150 mM), sodium butyrate (100 mM) or a SCFA mix (67.5 mM acetate, 40 mM Butyrate, 25.9 mM Propionate) in the drinking water. In in vivo drinking water treatment experiments, control mice received pH and sodium-matched water. At the conclusion of the experiment mice were removed from isolators and processed immediately.
# [2] = tested on: colonic Treg (cTreg); assay: SPF SCFA intervention; flow cytometry of lymphocytes; type: in vivo, mice
# Procedure: To isolate LP lymphocytes, small and large intestines were collected and opened longitudinally and washed with PBS to remove fecal contents. To remove epithelial cells, mucus and fat tissue, intestines were incubated 2 times in EDTA (5 mM)/DTT (1 mM)/Dulbecco's PBS (calcium and magnesium-free) solution (5 ml/colon) for 25 min at 37° C. Intestines were then minced and collagenase-digested two times for 45 min at 37° C. in RPMI containing 1 mg/ml collagenase type VIII (SIGMA), 25 μg/ml DNase I (Roche), 50 μg/ml Dispase (StemCell Technologies) and 0.01M HEPES (StemCell Technologies). The crude cell suspension was loaded onto a 40%/90% Percoll (GE Healthcare) gradient and centrifuged at 720 x g for 25 min at room temperature with acceleration and brake turned off. LP lymphocytes were collected from the 40%/90% interface.
# Intracellular staining of the transcription factors Foxp3, Helios and T-bet was performed using the Foxp3 Fix/Perm Buffer Set (Biolegend). For detection of intracellular cytokines, cells were first stimulated for 4 h with 50 ng/ml PMA and 1 μg/ml ionomycin in the presence of Brefeldin A (All obtained from Sigma), followed by staining for surface markers. Cells were then fixed and permeabilized using the Foxp3 Fix/Perm Buffer Set (Biolegend) and stained for intracellular cytokines. The following antibodies were used: PE-labeled anti-Foxp3 (FJK-16s, eBioscience), Pacific Blue-labeled anti-Helios (22F6), PE-, FITC- or APC-labeled anti-CD4 (RM4-5), PECy7-labeled anti-CD3 (145-2C11), PE- or APC-labeled anti-IL-10 (JES5-16E3), PerCP-Cy5.5-labeled anti-IL-17 (TC11-18H10.1), APC- or PE-Cy7-labeled anti-IFNγ (XMG1.2), Pacific Blue-labeled anti-TGFβ1 (TW7-16B4), FITC-, PerCP-Cy5.5 or Pacific Blue-labeled anti-CD45 (30-F11), PerCP-Cy5.5 anti-CD45RB (C363-16A), PE- or FITC-labeled anti-CD25 (PC61), Brilliant Violet 421-labeled anti-CD127 (A7R34), GPR43 rabbit polyclonal (Abcam Catalog *Ab118449, and anti-rabbit IgG DyLight649 (Poly4064). […] Flow cytometry was performed using LSRII and data were analyzed with FlowJo software (TreeStar, Inc.). […]
# [3] = tested on: colonic Treg (cTreg); assay: Antibiotic (vancomycin) treatment of SPF mice with or without SCFA; type: in vivo; conditions: Ffar2-/- vs Ffar2+/+ mice
# Procedure: Science 341: 1645 (2013). […] The crude cell suspension was loaded onto a 40%/90% Percoll (GE Healthcare) gradient and centrifuged at 720 x g for 25 min at room temperature with acceleration and brake turned off. LP lymphocytes were collected from the 40%/90% interface. Intracellular staining of the transcription factors Foxp3, Helios and T-bet was performed using the Foxp3 Fix/Perm Buffer Set (Biolegend). For detection of intracellular cytokines, cells were first stimulated for 4 h with 50 ng/ml PMA and 1 μg/ml ionomycin in the presence of Brefeldin A (All obtained from Sigma), followed by staining for surface markers. Cells were then fixed and permeabilized using the Foxp3 Fix/Perm Buffer Set (Biolegend) and stained for intracellular cytokines. The following antibodies were used: […] All antibodies were obtained from Biolegend unless otherwise noted. Flow cytometry was performed using LSRII and data were analyzed with FlowJo software (TreeStar, Inc.). Cell sorting was performed using a […] at the Dana-Farber Cancer Institute Flow Cytometry Core.
# [4] = tested on: colonic Treg (cTreg); assay: Ex vivo RTqPCR of cTreg from in vivo treated mice
# Procedure: Science 341: 1645 (2013). […] Treg were isolated from the colon, small intestine, mesenteric lymph node or spleen of C57BL/6 Foxp3^YFP-Cre mice and FACS-sorted based on expression of YFP. […] Real-time (RT)-qPCR was performed using the KAPA SYBR FAST Universal qPCR Kit (KAPA Biosystems) and a Stratagene MX3005P (Agilent Technologies).
# [5] = biological target: T1, Ffar2 (Homo sapiens, UniProt O15552); conditions: among SCFA; Le Poul et al. 2003; cited from earlier work
# T1 sequence (O15552 1-330): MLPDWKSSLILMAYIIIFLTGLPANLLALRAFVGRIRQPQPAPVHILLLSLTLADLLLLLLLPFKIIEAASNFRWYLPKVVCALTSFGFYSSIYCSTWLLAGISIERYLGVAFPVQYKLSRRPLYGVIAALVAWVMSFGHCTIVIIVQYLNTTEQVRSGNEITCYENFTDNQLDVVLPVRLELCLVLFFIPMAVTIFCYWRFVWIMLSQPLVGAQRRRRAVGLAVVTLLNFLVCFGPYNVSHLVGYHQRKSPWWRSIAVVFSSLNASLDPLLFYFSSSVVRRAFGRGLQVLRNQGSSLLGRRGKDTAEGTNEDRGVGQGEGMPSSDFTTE
# [6] = in vivo treated GF and SPF mice
smiles,measurement,setting,value
"CCC(=O)O [Propionate, propionic acid]","SCFA mix in mouse water bottle over time, Input (Day 0)",[1]; Day 0,200 mM
same,"SCFA mix in mouse water bottle over time, Day 1","[1]; Day 1, input 200 mM",200 mM
same,"SCFA mix in mouse water bottle over time, Day 4","[1]; Day 4, input 200 mM",199.6 mM
same,"SCFA mix in mouse water bottle over time, Day 7","[1]; Day 7, input 200 mM",201.24 mM
same,"SCFA mix in mouse water bottle over time, Day 10","[1]; Day 10, input 200 mM",202.9 mM
same,"SCFA mix in mouse water bottle over time, Day 14","[1]; Day 14, input 200 mM",203.2 mM
same,"SCFA mix in mouse water bottle over time, Day 90","[1]; Day 90, input 200 mM",41.9 mM
same,percentage and number of cTreg,[2]; Ffar2+/+ control mice,significantly enhanced
same,percentage and number of cTreg,[2]; Ffar2-/- mice,no effect
same,small intestinal Treg numbers,"[2]; SPF mice, distal ileum lamina propria",does not affect
same,restoration of cTreg populations and numbers in the setting of vancomycin treatment,[3],Ffar2 was necessary
same,Foxp3 and IL-10 expression in cTreg,[4]; cTreg from GF mice treated in vivo for three weeks,significant increase
same,levels of chemokine receptor CCR9 or α4β7 integrin in cTreg,[4]; [6],not altered
same,levels of the cTreg homing receptor GPR15,[4]; [6],increase
same,affinity for Ffar2,[5],highest affinity
